Earlier results as cited in article PMC3653137 (Molecular pharmaceutics, 2013).
Residues, ends and D or L forms follow the SMILES beside them.

Legend:
HCT-116 cells = settings: [WR]4 alone at similar concentrations
CCRF-CEM cells = settings: [WR]4 alone at similar concentrations
SK-OV-3 cells = settings: [WR]4 alone at similar concentrations
BT-20 cells = settings: BT-20 human breast carcinoma cells

Row | Compound | cytotoxicity in HCT-116 cells (HCT-116 cells) | cytotoxicity in CCRF-CEM cells (CCRF-CEM cells) | cytotoxicity in SK-OV-3 cells (SK-OV-3 cells) | fold enhancement of cellular delivery of F′-GpYEEI by the carrier peptide (BT-20 cells) [fold]
1 | N=C(N)NCCC[C@@H]1NC(=O)[C@H](Cc2c[nH]c3ccccc23)NC(=O)[C@H](CCCNC(=N)N)NC(=O)[C@H](Cc2c[nH]c3ccccc23)NC(=O)[C@H](CCCNC(=N)N)NC(=O)[C@H](Cc2c[nH]c3ccccc23)NC(=O)[C@H](CCCNC(=N)N)NC(=O)[C@H](Cc2c[nH]c3ccccc23)NC1=O [[WR]4] (cyclo(RWRWRWRW)) | not cytotoxic | not cytotoxic | not cytotoxic | 
2 | Lys-(CH2)11-Arg-(CH2)11-Arg [LPA4] |  |  |  | 10
